The record followed here is US20250375525A1, “USE OF INDOCYANINE GREEN IN ANTIBACTERIAL OR BACTERICIDAL APPLICATION” (Buddhist Tzu Chi Medical Foundation, priority 2024, published 2025).

One series has as its system HEK293 cells. Nature of the series: MTT analysis of cell survival rate after ICG and near-infrared light irradiation. The format is cell-based, human. As to conditions: ICG at different concentrations + near-infrared light (780 nm) irradiation. The source says: (§1) After administering ICG and near-infrared light (780 nm) excitation and irradiation to HEK293 cells and HT-1080-1B3 cells, observing the cell survival rates of different concentration groups by MTT analysis.

The next series deals with HT-1080-1B3 cells. The series is described as above. The format is cell-based. As to conditions: ICG at different concentrations + near-infrared light (780 nm) irradiation.
Excerpt: as §1

Series [1] has as its system mycoplasma. In words: DAPI staining of mycoplasma in HEK293 cells after ICG light treatment. In kind it is cell-based. To be noted: 50 μg/mL ICG + 780 nm laser, 10 minutes. As for the experimental part: After HEK293 cells are treated with 50 μg/mL ICG and irradiated with near-infrared light excitation, the distribution of mycoplasma in each group was observed by DAPI staining (the red arrow indicates the expression position of mycoplasma). CTL: control group; −Laser: not excited by laser; +Laser: excited by laser.
(§2) First, HT1080-1B3 and HEK293 cells were collected through trypsin-EDTA reaction and then seeded into a six-well plate at a cell number of 3×10^5 cells/well. The next day, a working concentration of 50 μg/mL of ICG was added to each well, and the reaction took place in the dark at 37° C. for 1 hour. After the reaction was completed, the cells were irradiated with near-infrared light of 780 nm wavelength for 10 minutes. The supernatant was removed, and the cells were washed twice with PBS. Then, a working concentration of 1 μg/ml DAPI was added to each well, and the reaction took place in the dark at room temperature for 15 minutes. Finally, washed twice with PBS, and the quantitative changes of stained mycoplasma chromosomes were observed under the UV light mode of an inverted fluorescence microscope (Nikon).

The subject of series [2] is mycoplasma. In words: RT-PCR of mycoplasma DNA in HEK293 cells after ICG light treatment. The format is cell-based. To be noted: 50 μg/mL ICG + 780 nm laser, 10 minutes. Here is the method: (§3) (A) After HEK293 cells are treated with 50 μg/mL ICG and irradiated with near-infrared light excitation, the expression level of mycoplasma DNA in each group was observed by RT-PCR and DNA electrophoresis. (B) Results of DNA electrophoresis were quantitated by the Image J software (p-value: *<0.05, **<0.01, and ***<0.001).
(§4) HT1080-1B3 and HEK293 cells were collected through trypsin-EDTA reaction and then seeded into a six-well plate at a cell number of 3×10^5 cells/well. The next day, a working concentration of 50 μg/mL of ICG was added to each well, and the reaction took place in the dark at 37° C. for 1 hour. After the reaction was completed, the cells were irradiated with near-infrared light of 780 nm wavelength for 10 minutes, the supernatant was removed, and the cells were washed twice with PBS. Then, the cells were collected into a 1.5 mL test tube with trypsin-EDTA, 100 μL KAPA rapid extraction buffer was added to the test tube, and the test tube was placed in a dry bath at 75° C. for 10 minutes and at 95° C. for 5 minutes. Then, DNA samples were prepared according to the operating manual of the e-Myco™ VALID Mycoplasma PCR detection kit, and PCR reaction was performed by PCR instrument (Applied Biosystems) under setting conditions (30 cycles: 95° C./3 minutes, 95° C./15 seconds, 55° C./15 seconds, 72° C./20 seconds and 72° C./1 minute). […]

Series [3] has as its system mycoplasma. In words: DAPI staining of mycoplasma in HT1080-1B3 cells after ICG light treatment. In kind it is cell-based. As to conditions: HT-1080-1B3 cells (overexpress OATP1B3); 50 μg/mL indocyanine green + 780 nm laser, 10 minutes. As for the experimental part: After HT1080-1B3 cells are treated with 50 μg/mL ICG and irradiated with near-infrared light excitation, the distribution of mycoplasma in each group was observed by DAPI staining (the red arrow indicates the expression position of mycoplasma). CTL: control group; −Laser: not excited by laser; +Laser: excited by laser.
as §2

Series [4] has as its system mycoplasma. Nature of the series: RT-PCR of mycoplasma DNA in HT1080-1B3 cells after ICG light treatment. In kind it is cell-based. As to conditions: HT-1080-1B3 cells (overexpress OATP1B3); 50 μg/mL indocyanine green + 780 nm laser, 10 minutes. As for the experimental part:
as §3, §4

In the case of `CC1(C)C(/C=C/C=C/C=C/C=C2\N(CCCCS(=O)(=O)O)c3ccc4ccccc4c3C2(C)C)=[N+](CCCCS(=O)(=O)[O-])c2ccc3ccccc3c21` [ICG, Indocyanine green], the “cell survival rate (MTT analysis)” value with HEK293 cells and in the series on HT-1080-1B3 cells was “no negative impact on cells” in each case. Further, the results for the “number of mycoplasma bacteria (DAPI staining)” value with mycoplasma [1] and in the series with mycoplasma [3] were “significantly reduced” and “disappears”, respectively. Also, the “expression level of mycoplasma DNA (RT-PCR, DNA electrophoresis)” value is on record as “significantly reduce” with mycoplasma [2] and “no expression level of mycoplasma DNA was observed” in the series on mycoplasma [4].
